Reference: US20140205553A1, “AGENT FOR ENHANCING THE EFFECT OF SKIN-WHITENING INGREDIENTS AND USES THEREOF” (Hayashibara Co., Ltd., priority 2010, published 2014)
Where two headings read alike, the source gives them in different places.

Tested on: mouse B16 melanoma cells
Test: Melanin formation by mouse B16 melanoma cells cultured with test samples (melanin content, absorbance 450 nm)
Type: cell-based
Description: The effect of nucleic-acid-related compounds on melanin-formation inhibition was evaluated by using mouse B16 melanoma cells frequently used as an index for evaluating skin-whitening agents used in external dermatological agents. Since nucleic-acid-related compounds are roughly classified into purine and pyrimidine compounds, the following respective representative compounds were used as test samples. […] Thereafter, cells were collected after adding trypsin-EDTA to each well and subjecting the resultant to centrifugation. The collected cells were washed once with Dulbecco's PBS (-) (abbreviated as “D-PBS”, hereinafter) and centrifuged to remove the supernatant. To the remaining cell pellet was added 0.5 ml of 1N sodium hydroxide to solubilize the cells. The resulting alkali-solubilized solution was boiled for 30 min and determined for melanin content by the following method. […] Each of these wells was assayed for melanin content similarly as above. […] In this and the following experiments, it means that the lower the melanin formation percentage, the higher the melanin-formation inhibitory effect, i.e., the skin-whitening effect.

[1] = test sample 1 μM in liquid culture medium, 5 days, negative control = 100
[2] = test sample 5 μM in liquid culture medium, 5 days, negative control = 100
[3] = Experiment 1, test sample 10 μM
[4] = Mus musculus, B16, 120 h, molar ratio guanine:adenine or equol 0:1, total concentration 5 μM, read-out: Melanin formation percentage
[5] = Mus musculus, B16, 120 h, test sample 2.5 μM in liquid culture medium, 5 days, negative control = 100, read-out: Melanin formation percentage
[6] = Mus musculus, B16, 120 h, test sample 5 μM in liquid culture medium, 5 days, negative control = 100, read-out: Melanin formation percentage
[7] = Mus musculus, B16, 120 h, test sample 10 μM in liquid culture medium, 5 days, negative control = 100, read-out: Melanin formation percentage
[8] = Mus musculus, B16, 120 h, test sample 20 μM in liquid culture medium, 5 days, negative control = 100, read-out: Melanin formation percentage
[9] = Experiment 2, test sample 5 μM alone
[10] = Mus musculus, B16, 120 h, test sample 1 μM in liquid culture medium, 5 days, negative control = 100, read-out: Melanin formation percentage
[11] = test sample 10 μM in liquid culture medium, 5 days, negative control = 100
[12] = test sample 20 μM in liquid culture medium, 5 days, negative control = 100

## OC[C@H]1O[C@H](Oc2ccc([C@H]3COc4cc(O)ccc4C3)cc2)[C@H](O)[C@@H](O)[C@@H]1O [4′-Glucosyl-S-equol, 4′-O-α-D-glycopyranosyl-S-equol]
[1]
  Melanin formation percentage: 85%
[2]
  Melanin formation percentage: 74%

## OC[C@H]1O[C@H](Oc2ccc3c(c2)OC[C@H](c2ccc(O)cc2)C3)[C@H](O)[C@@H](O)[C@@H]1O [7-Glucosyl-S-equol, 7-O-α-D-glycopyranosyl-S-equol]
[1]
  Melanin formation percentage: 85%
[2]
  Melanin formation percentage: 75%

## Nc1ncnc2nc[nH]c12 [Adenine]
[3]
  Melanin-formation inhibition (in words): inhibited
[4]
  activity at 5 µM: 83%
[5]
  activity at 2.5 µM: 95%
[6]
  activity at 5 µM: 83%
[7]
  activity at 10 µM: 60%
[8]
  activity at 20 µM: 39%

## Nc1ncnc2c1ncn2[C@@H]1O[C@H](COP(=O)(O)OP(=O)(O)O)[C@@H](O)[C@H]1O [Adenosine 5′-diphosphate, adenosine 5′-diphosphate]
[6]
  activity at 5 µM: 93%
[7]
  activity at 10 µM: 81%
[8]
  activity at 20 µM: 51%

## Nc1ncnc2c1ncn2[C@@H]1O[C@H](COP(=O)(O)O)[C@@H](O)[C@H]1O [Adenosine 5′-monophosphate, adenosine 5′-monophosphate]
[5]
  activity at 2.5 µM: 97%
[6]
  activity at 5 µM: 100%
[7]
  activity at 10 µM: 82%
[8]
  activity at 20 µM: 60%

## Nc1ncnc2c1ncn2[C@@H]1O[C@H](COP(=O)(O)OP(=O)(O)OP(=O)(O)O)[C@@H](O)[C@H]1O [Adenosine 5′-triphosphate, adenosine 5′-triphosphate]
[6]
  activity at 5 µM: 93%
[7]
  activity at 10 µM: 80%
[8]
  activity at 20 µM: 53%

## Nc1ncnc2c1ncn2[C@@H]1O[C@H](CO)[C@@H](O)[C@H]1O [Adenosine, adenosine]
[5]
  activity at 2.5 µM: 98%
[6]
  activity at 5 µM: 94%
[7]
  activity at 10 µM: 71%
[8]
  activity at 20 µM: 48%

## Nc1cc[nH]c(=O)n1 [Cytosine, reference compound]
[3]
  Melanin-formation inhibition (in words): no melanin-formation inhibition was observed
[9]
  Melanin-formation inhibition (in words): No melanin-formation inhibition was found
[6]
  activity at 5 µM: 98%
[7]
  activity at 10 µM: 100%

## Oc1ccc([C@H]2COc3cc(O)ccc3C2)cc1 [Equol, equol]
[4]
  activity at 5 µM: 91%
[10]
  activity at 1 µM: 91%
[6]
  activity at 5 µM: 67%
skin-whitening ingredient together with guanine including derivatives or other nucleic-acid-related compound
  Enhancement of the skin-whitening (melanin-formation-inhibitory) action in combination (in words): enhanced

## Nc1nc2nc[nH]c2c(=O)[nH]1 [Guanine]
[3]
  Melanin-formation inhibition (in words): no melanin-formation inhibition was observed
[9]
  Melanin-formation inhibition (in words): No melanin-formation inhibition was found
Mus musculus, B16, 120 h, read-out: Melanin formation percentage, molar ratio guanine:adenine or equol 1:0, total concentration 5 μM
  activity at 5 µM: 98%
Mus musculus, B16, 120 h, read-out: Melanin formation percentage, test sample 1 μM in liquid culture medium, 5 days, negative control = 100
  activity at 1 µM: 100%
Mus musculus, B16, 120 h, read-out: Melanin formation percentage, test sample 2.5 μM in liquid culture medium, 5 days, negative control = 100
  activity at 2.5 µM: 99%
Mus musculus, B16, 120 h, read-out: Melanin formation percentage, test sample 5 μM in liquid culture medium, 5 days, negative control = 100
  activity at 5 µM: 98%
Mus musculus, B16, 120 h, read-out: Melanin formation percentage, test sample 10 μM in liquid culture medium, 5 days, negative control = 100
  activity at 10 µM: 98%
Mus musculus, B16, 120 h, read-out: Melanin formation percentage, test sample 20 μM in liquid culture medium, 5 days, negative control = 100
  activity at 20 µM: 101%

## Nc1nc2c(ncn2[C@@H]2O[C@H](COP(=O)(O)OP(=O)(O)O)[C@@H](O)[C@H]2O)c(=O)[nH]1 [Guanosine 5′-diphosphate, guanosine 5′-diphosphate]
[6]
  activity at 5 µM: 93%
[7]
  activity at 10 µM: 100%
[8]
  activity at 20 µM: 95%

## Nc1nc2c(ncn2[C@@H]2O[C@H](COP(=O)(O)O)[C@@H](O)[C@H]2O)c(=O)[nH]1 [Guanosine 5′-monophosphate, guanosine 5′-monophosphate]
[10]
  activity at 1 µM: 99%
[5]
  activity at 2.5 µM: 99%
[6]
  activity at 5 µM: 100%
[7]
  activity at 10 µM: 101%
[8]
  activity at 20 µM: 101%

## Nc1nc2c(ncn2[C@@H]2O[C@H](COP(=O)(O)OP(=O)(O)OP(=O)(O)O)[C@@H](O)[C@H]2O)c(=O)[nH]1 [Guanosine 5′-triphosphate, guanosine 5′-triuphosphate]
[2]
  Melanin formation percentage: 95%
[11]
  Melanin formation percentage: 98%
[12]
  Melanin formation percentage: 97%

## Nc1nc2c(ncn2[C@@H]2O[C@H](CO)[C@@H](O)[C@H]2O)c(=O)[nH]1 [Guanosine, guanosine]
[10]
  activity at 1 µM: 99%
[5]
  activity at 2.5 µM: 98%
[6]
  activity at 5 µM: 98%
[7]
  activity at 10 µM: 102%
[8]
  activity at 20 µM: 97%

## O=c1[nH]cnc2nc[nH]c12 [Hypoxanthine, reference compound]
[3]
  Melanin-formation inhibition (in words): no melanin-formation inhibition was observed
[9]
  Melanin-formation inhibition (in words): No melanin-formation inhibition was found
[6]
  activity at 5 µM: 97%
[7]
  activity at 10 µM: 97%

## OC[C@H]1O[C@@H](n2cnc3c(O)ncnc32)[C@H](O)[C@@H]1O [Inosine, reference compound]
[3]
  Melanin-formation inhibition (in words): no melanin-formation inhibition was observed
[9]
  Melanin-formation inhibition (in words): No melanin-formation inhibition was found
[6]
  activity at 5 µM: 98%
[7]
  activity at 10 µM: 96%

## O=c1cc(CO)occ1O [Kojic acid, reference compound]
Mus musculus, B16, 120 h, test sample 500 μM in liquid culture medium, 5 days, negative control = 100, read-out: Melanin formation percentage
  activity at 500 µM: 71%
Mus musculus, B16, 120 h, test sample 1000 μM in liquid culture medium, 5 days, negative control = 100, read-out: Melanin formation percentage
  activity at 1000 µM: 49%
Mus musculus, B16, 120 h, test sample 2000 μM in liquid culture medium, 5 days, negative control = 100, read-out: Melanin formation percentage
  activity at 2000 µM: 30%
At the concentrations used in the experiment
  Melanin-formation-inhibitory action of the test sample alone (in words): inhibited the melanin formation by mouse B16 melanoma cells in a concentration dependent manner

## Oc1ccc([C@@H]2COc3cc(O)ccc3C2)cc1 [R-Equol, R-equol]
[1]
  Melanin formation percentage: 94%
[2]
  Melanin formation percentage: 77%

## Oc1ccc([C@H]2COc3cc(O)ccc3C2)cc1 [S-Equol, S-equol]
[1]
  Melanin formation percentage: 86%
[2]
  Melanin formation percentage: 60%

## Cc1c[nH]c(=O)[nH]c1=O [Thymine, reference compound]
[3]
  Melanin-formation inhibition (in words): no melanin-formation inhibition was observed
[9]
  Melanin-formation inhibition (in words): No melanin-formation inhibition was found
[6]
  activity at 5 µM: 99%
[7]
  activity at 10 µM: 97%

## O=c1cc[nH]c(=O)[nH]1 [Uracil, reference compound]
[3]
  Melanin-formation inhibition (in words): no melanin-formation inhibition was observed
[9]
  Melanin-formation inhibition (in words): No melanin-formation inhibition was found
[6]
  activity at 5 µM: 98%
[7]
  activity at 10 µM: 99%

## O=c1[nH]c(=O)c2[nH]cnc2[nH]1 [Xanthine, reference compound]
[3]
  Melanin-formation inhibition (in words): no melanin-formation inhibition was observed
[9]
  Melanin-formation inhibition (in words): No melanin-formation inhibition was found
[6]
  activity at 5 µM: 100%
[7]
  activity at 10 µM: 100%

## glucosyladenosine
[2]
  Melanin formation percentage: 89%
[11]
  Melanin formation percentage: 63%
[12]
  Melanin formation percentage: 43%

## glucosylguanosine
[1]
  Melanin formation percentage: 99%
Test sample 2.5 μM in liquid culture medium, 5 days, negative control = 100
  Melanin formation percentage: 98%
[2]
  Melanin formation percentage: 98%
[11]
  Melanin formation percentage: 99%
[12]
  Melanin formation percentage: 99%
